Structure (SMILES)	melting point [°C]
O=C(O)CN(CC(=O)O)CC(=O)Nc1c(F)c(F)c(F)c(F)c1F	182 to 183
CSc1ccc(Oc2ccc(C#N)cc2)cc1	65 to 66
COc1ccc(CN2C(=O)c3c(-c4ccccc4Cl)cc4[nH]c5ccc(OC)cc5c4c3C2=O)c(OC)c1	224 to 226
CC(C)(C)OC(=O)NCCn1cc(COc2ccc(C3=NC(=Nc4[nH]c(-c5ccc(O)cc5)cc4-c4ccccc4)C(c4ccccc4)=C3)cc2)nn1	128 to 130
COC(=O)CNC(=O)c1ccc(NS(=O)(=O)c2ccc(F)cc2)cn1	146 to 148
CCC(CC)Nc1cc(C)nc(Sc2c(C)cc(C)cc2C)c1C	108 to 110
COc1ccc(C(=O)CC(=O)C(F)(F)F)cc1OC	87 to 89
COc1ccnc(C(C)Sc2nc3cc(OC(F)F)c(OC)cc3[nH]2)c1 (stereo not given)	128 to 131
CN(c1ccc(Cl)nc1)S(C)(=O)=O	87 to 90
Cc1c(C(=O)Nc2ccc(OCC(C)C)c(C#N)c2)cnn1C	160 to 162
Cc1nc(N2CCCCC2)ccc1N1CCCn2c1nc1c(Cl)ccc(C(OC(F)F)C(F)(F)F)c12 (stereo not given)	164 to 167
OCC1C(O)C(O)C(O)CN1C=CCc1cccc(OCCOc2cccc(CC=CN3CC(O)C(O)C(O)C3CO)c2)c1 (stereo not given)	210 to 213
CC1(C)CC(O)CC(C)(C)N1OC1C=CCCC1 (stereo not given)	65 to 66.5
COc1ccc(S(=O)(=O)Nc2cccnc2Nc2ccc(O)cc2)cc1	178 to 179
COc1ccc(CNC(=O)C23CC4CC(CC(C4)C2)C3)cc1	91 to 94
C#CCON=C(C)C1CN2CCC1CC2 (stereo not given)	56 to 58
c1cc2[nH]ncc2cc1NC1CC2CCC(C1)N2 (stereo not given)	236 to 238
CN(CCN(C)S(=O)(=O)c1ccc(F)cc1)C(=O)c1ccc(Nc2ccnc3cc(C(F)(F)F)ccc23)cc1	191 to 193
CS(=O)c1c(C=NO[Si](C)(C)C(C)(C)C)nn(-c2c(Cl)cc(C(F)(F)F)cc2Cl)c1N (stereo not given)	150 to 154
COc1cc(CCI)cc(OC)c1	30 to 33
COc1cc(C(C)=O)ccc1OCCCCN1C2CCC1CC(c1n[nH]c3cc(F)ccc13)C2 (stereo not given)	148 to 149

Structure (SMILES)	melting point [°C]
O=C(O)c1ccc([N+](=O)[O-])cc1NC(=O)C(F)(F)F	198
CC(C)n1cc(-c2ccc(C=O)cc2)c2c(N)ncnc21	198 to 200
CC(C)OC(=O)c1cc(NC(=O)C(C)(C)C)c(F)cc1Cl	81 to 83
CCOCn1cc(-c2ccnc(N)n2)c2c(OC)cc(Br)nc21	> 210
Cc1c(Cl)cc(NC(=O)C(=O)Nc2cc(Cl)c(C)c(Cl)c2O)c(O)c1Cl	330
Cc1cc(C=O)cc(Oc2nc(Cl)nc(Cl)c2C(C)C)c1	227 to 229
O=C1CCC(N2Cc3c(OCc4ccc(CN5CCN(C(=O)C(F)(F)F)CC5)cc4)cccc3C2=O)C(=O)N1 (stereo not given)	125 to 127
CC(C)(C)OC(=O)N1CCCN(c2ccc(N)cc2C#N)CC1	38
CCNc1nc(C(C)(C)C)nn1-c1c(Cl)cc(C(F)(F)F)cc1Cl	67 to 70
O=C(CCC(=O)N(CCO)CCO)N(CCO)CCO	89 to 91
COC(=O)CCC1=C(N)CCC1=O	223 to 224
Cc1ccc(C(O)(Cn2ccnc2)C(C)(C)C)cc1 (stereo not given)	135 to 137
CCSc1nsc(NC(=O)NC)c1C(N)=O	205
CC1(C)C(C#N)C1(C)C	17
CC(C)c1nc(C(O)(C(F)(F)F)C(F)(F)F)[nH]c1-c1ccc([N+](=O)[O-])cc1	157 to 160
COc1ccc(NS(=O)(=O)c2ccc([N+](=O)[O-])cc2OC)cc1	180 to 182
CNS(=O)(=O)c1cn(C)c2c(OC)c(OC)c(OC)cc2c1=O	184 to 186
COC(=O)COc1noc2ccc([N+](=O)[O-])cc12	72 to 73.5
COc1ccc2cc(C3=CCC4(CC3)CCN(C)CC4)ccc2c1	147 to 150
Cc1nn(-c2cc(Oc3ccc(N)cc3Cl)c(Cl)cc2Cl)c(=O)n1C(F)F	161 to 162

Continued, values first:

melting point [°C]	Structure (SMILES)
101 to 103	COc1ccc2c(c1)C(=O)C(Cc1ccccc1)CN2S(=O)(=O)c1ccc(C)cc1 (stereo not given)
165	CC(C)(C)OC(=O)Nc1ccc(-c2ccccc2)cc1NC(=O)CC(=O)c1sccc1Cl
166 to 169	O=C(O)Cc1ccc(Oc2ccc3c(c2)S(=O)(=O)NC2CCCN32)cc1 (stereo not given)
132 to 133	COCc1cc2c(s1)CCc1cc(=O)n(-c3ccc(C)cc3)nc1-2
134	Cn1c(=NN)sc2ccccc21
151	CCC1(c2ccc(Cl)cc2)OCc2c1cnc(CN(C)C)c2O (stereo not given)
162 to 168	Cc1oc(-c2ccc(-c3ccc(-c4nc(CC(=O)OCc5ccccc5)c(C)o4)cc3)cc2)nc1CC(=O)OCc1ccccc1
78	COc1ccc(C=CC(=O)CN2CCOCC2)cc1
159 to 160	Cc1nnc(-c2ccc3occ(-c4ccccc4C(F)(F)F)c3c2)o1
153 to 154	COc1ccc2c(c1)c(C1CCN(CCOc3ccccc3C(=O)O)CC1)cn2Cc1ccoc1
92 to 93	c1coc(-c2nc(COc3ccc(CCCn4ccnc4)cc3)co2)c1
35 to 36	CCCCCC[C@@H]1C[C@H](c2ccc(OC)cc2)C(=O)O1
197 to 198	O=c1nc(-c2ccccn2)sc2ccc(OCCCO)cc12
193 to 196	NC(=O)c1ccc(Cc2ccccc2)cn1
65 to 66	ClCCCn1ncc2cc(OCc3ccccc3)ccc21
164 to 166	Nc1cc(C(F)(F)F)ccc1-c1cc2ccccc2[nH]1
70 to 71	O=C1C=CC=C2C=CC=C12
195	COc1ccc(-c2cc3ccccc3[nH]2)c(O)c1
214	Cc1nc2ccccc2c(N)c1C(C)O (stereo not given)
223 to 225	CCOC(=O)C1C=Nc2c(ccc3ncccc23)N1O (stereo not given)

melting point [°C]	Structure (SMILES)
> 250	Nc1c(-c2csc(-c3ccncc3)n2)c(=O)[nH]c2ccccc12
114 to 117	CCCCCCCCCCCCNC(=O)c1cc(-c2ccc(OC)cc2)c(OCC(=O)O)c(-c2cccc(Cl)c2)c1
134	Cc1ccc(C(=O)c2cc(-c3cccnc3)c(N3CCOCC3)s2)cc1
115 to 117	CC(=S)NC[C@H]1CN(c2ccc3c(c2)C[C@@H](C)N3C(=O)CO)C(=O)O1
142	FC1(F)Oc2cccc(-c3n[nH]cc3I)c2O1
116 to 119	CCOC(=O)c1ccc(COc2cccc(NC(C)=O)c2C=O)cc1
130 to 131	CCOc1cccnc1CSCCNC(=C[N+](=O)[O-])NC
119 to 120	CCCCCCC1(c2ccccc2)CC(O)=CC(=O)O1 (stereo not given)
183 to 186	CC[Si](C#CC1(CO)OC(n2ccc(=O)[nH]c2=O)C(O)C1O)(CC)CC (stereo not given)
169 to 170	CSc1nnc2n1C=Cc1ccccc1C2c1ccccc1 (stereo not given)
205 to 209	COc1cccc(CNC(=O)c2[nH]c3ccc(Cl)cc3c2S(=O)(=O)c2nccs2)c1
62 to 63	CCN(CC)C(=O)c1ccsc1-c1ccc(F)cc1
121	COc1cc(-c2nc(NC(=O)c3cc4ccccc4n3CCCCCC(=O)O)sc2CCC2CCCCC2)c(OC)cc1Cl
145 to 147	CCCOc1ccc(S(=O)(=O)N2CCC(C(=O)OCC)CC2)cc1-c1nc2cc3nc[nH]c3cc2c(=O)[nH]1
160 to 162	COC(=O)COc1cc2cccnc2c(-c2cccc([N+](=O)[O-])c2)n1
168 to 170	O=C1Cc2cc(CCCl)ccc2N1
122 to 127	COC(=O)CCc1cc2cc(C(C)=O)ccc2n1S(=O)(=O)c1ccccc1
116 to 117	C[C@@H](n1cnn(-c2ccc(OCC(F)(F)C(F)F)cc2)c1=O)[C@@]1(c2ccc(F)cc2F)CO1
81 to 82	N=C(Nc1cccc(NC(=O)CNC(=O)OCc2ccccc2)c1)N1CCCC1
150 to 152	C=CCOc1ccc2c(=O)c3ccccc3oc2c1C(=O)C=Cc1ccccc1

melting point [°C]	Structure (SMILES)
33 to 35	CCOC(=O)c1oc2ccc(Cl)cc2c1C(=O)OCC
160 to 161	O=C(NCCO)c1ccc(-c2cccc3cc(Cc4cccc(C(F)(F)F)c4)sc23)nc1
124 to 127	C=CCN(C)C(=O)Cn1c(-c2ccc(Cl)cc2)nc2cccnc21
159 to 160	CC(O)=C(C(=O)OCc1ccc([N+](=O)[O-])cc1)N1C(=O)C(NC(=O)COc2ccccc2)C1SS(=O)(=O)c1ccc(C)cc1 (stereo not given)
93 to 96	COC1=C(OC)C(=O)C2=C(CC(CCCCCCCCNC(C)=O)C2)C1=O
242	Cc1cccc(C=NNC(=O)c2ccc(O)cc2)c1
89 to 91	COc1cn([C@H](C)c2cccc3ccccc23)c(=O)o1
110 to 112	Cc1c(SCCN(C)Cc2ccccc2)ccnc1CSc1nc2ccccc2[nH]1
161	CC1=CC(c2ccccc2Cl)C(C(=O)OC(C)C)=C(N)N1 (stereo not given)
72 to 73	CCOC(=O)c1sc(Oc2ccc(Cl)cc2Cl)nc1-c1cccc(C(F)(F)F)c1
99 to 100	COc1ccc(C(=C/C=C/C(=O)NCCCCCc2ccccn2)c2ccc(OC)cc2)cc1
132	COc1ccc(C/N=C/C(/C=N/Cc2ccc(OC)cc2)[N+](=O)[O-])cc1
82 to 83	OCCCCNc1nnc(-c2ccc(F)c(F)c2Nc2ccc(I)cc2F)o1
122 to 123	CC(c1ccc(-c2ccccc2)c(F)c1)c1cc(N)on1 (stereo not given)
51 to 53	CCOc1cc(CO)ccc1OCCBr
164	O=C(Cc1cccs1)Nc1cccc2nc(N[C@@H]3CCc4ccccc43)ccc12
54 to 56	CC(=Cc1ccc(C)cc1C)c1ccc2c(c1)C(C)(C)CCC2(C)C
> 240	COc1ccc(-c2ccc(COc3cc4c(cc3CCN(CCCCC(=O)O)Cc3ccc(C(=O)O)cc3)CCCC4)cc2)cc1
177 to 178	CC(C)(C)OC(=O)[C@H](Cc1ccc(O)cc1)NC(=O)c1c(Cl)cccc1Cl

— a melting point compilation (Tetko et al.; mined from patent text by program, amines drawn as free bases though some values may be those of a salt)
